Each block holds one compound with its values, some of them ahead of it.
Columns and labels:
Type in all cases: functional, cell-based
SW1990 = experiment: Cytotoxicity against human SW1990 cells assessed as reduction in cell viability
DU-145 = experiment: Cytotoxicity against human DU145 cells assessed as reduction in cell viability
HeLa = experiment: Cytotoxicity against human HeLa cells assessed as reduction in cell viability
HepG2 = experiment: Cytotoxicity against human HepG2 cells assessed as reduction in cell viability
MCF7 = experiment: Cytotoxicity against human MCF7 cells assessed as reduction in cell viability
NCI-H460 = experiment: cells; details: Homo sapiens
Description: Cytotoxicity against human NCI-H460 cells assessed as reduction in cell viability

SW480 = experiment: Cytotoxicity against human SW480 cells assessed as reduction in cell viability
[1] = Cytotoxicity against human SGC7901 cells assessed as reduction in cell viability; details: SGC-7901
U-251 = experiment: Cytotoxicity against human U251 cells assessed as reduction in cell viability

SMILES: Nc1ccn([C@@H]2O[C@H](CO)[C@@H](O)C2(F)F)c(=O)n1 [GEMCITABINE]
IC50 (SW1990): 2.2 µM

IC50 (NCI-H460): > 20 µM
SMILES: O=C1C[C@H](O)[C@H](O)[C@@H]2[C@H]1C[C@@]13SS[C@]4(C[C@H]5[C@@H]([C@@H](O)C=C[C@@H]5O)N4C1=O)C(=O)N23
IC50 (DU-145): > 20 µM | IC50 (HeLa): > 20 µM | IC50 (HepG2): > 20 µM | IC50 (MCF7): > 20 µM | IC50 (SW480): > 20 µM | IC50 [1]: > 20 µM | IC50 (SW1990): > 20 µM | IC50 (U-251): > 20 µM

IC50 (NCI-H460): > 20 µM
SMILES: CO[C@H]1CC(=O)[C@@H]2C[C@@]34SS[C@]5(C[C@H]6C(=O)C[C@H](O)[C@H](O)[C@H]6N5C3=O)C(=O)N4[C@@H]2[C@H]1O
IC50 (DU-145): > 20 µM | IC50 (HeLa): > 20 µM | IC50 (HepG2): > 20 µM | IC50 (MCF7): > 20 µM | IC50 (SW480): > 20 µM | IC50 [1]: > 20 µM | IC50 (SW1990): > 20 µM | IC50 (U-251): > 20 µM

IC50 (NCI-H460): 4.9 µM
SMILES: CO[C@H]1CC(=O)[C@@H]2C[C@@]34SS[C@]5(C[C@@H]6C(=O)C=C[C@H](O)[C@H]6N5C3=O)C(=O)N4[C@@H]2[C@H]1O
IC50 (DU-145): 4.2 µM | IC50 (HeLa): 6.8 µM | IC50 (HepG2): 6.4 µM | IC50 (MCF7): 5.5 µM | IC50 (SW480): 2 µM | IC50 [1]: 2.6 µM | IC50 (SW1990): 6 µM | IC50 (U-251): 5.2 µM

SMILES: COc1cccc2c1C(=O)c1c(O)c3c(c(O)c1C2=O)C[C@@](O)(C(=O)CO)C[C@@H]3O[C@H]1C[C@H](N)[C@H](O)[C@H](C)O1 [DOXORUBICIN]
IC50 [1]: 2.9 µM

IC50 (NCI-H460): 12.4 µM
SMILES: O=C1N2[C@H]3[C@H](C[C@]24SS[C@]12C[C@H]1[C@@H]([C@@H](O)C=C[C@@H]1O)N2C4=O)[C@@H](O)C=C[C@@H]3O
IC50 (DU-145): 11.2 µM | IC50 (HeLa): 4.3 µM | IC50 (HepG2): 5.6 µM | IC50 (MCF7): 9 µM | IC50 [1]: 3.3 µM | IC50 (SW1990): 2.1 µM | IC50 (U-251): 6.1 µM

IC50 (NCI-H460): 4 µM
SMILES: O=C1C=C[C@H](O)[C@@H]2[C@@H]1C[C@@]13SS[C@]4(C[C@H]5C(=O)CC[C@H](O)[C@H]5N4C1=O)C(=O)N23
IC50 (DU-145): 3.6 µM | IC50 (HeLa): 5.3 µM | IC50 (HepG2): 5.5 µM | IC50 (MCF7): 6.1 µM | IC50 (SW480): 1.2 µM | IC50 [1]: 2.4 µM | IC50 (SW1990): 6.4 µM | IC50 (U-251): 3.5 µM

IC50 (NCI-H460): 0.89 µM
SMILES: O=C1C=C[C@H](O)[C@@H]2[C@@H]1C[C@@]13SS[C@]4(C[C@H]5[C@@H]([C@@H](O)C=C[C@@H]5O)N4C1=O)C(=O)N23
IC50 (DU-145): 1.7 µM | IC50 (HeLa): 6.9 µM | IC50 (HepG2): 2.9 µM | IC50 (MCF7): 3 µM | IC50 [1]: 8 µM | IC50 (SW1990): 5.9 µM | IC50 (U-251): 5.3 µM

SMILES: CC(=O)O[C@H]1C(=O)[C@@]2(C)[C@H]([C@H](OC(=O)c3ccccc3)[C@]3(O)C[C@H](OC(=O)[C@H](O)[C@@H](NC(=O)c4ccccc4)c4ccccc4)C(C)=C1C3(C)C)[C@]1(OC(C)=O)CO[C@@H]1C[C@@H]2O [PACLITAXEL]
IC50 (DU-145): 1.5 µM | IC50 (HeLa): 5 µM | IC50 (MCF7): 1.8 µM

From ChEMBL document CHEMBL3352627, “Brocazines A-F, Cytotoxic Bisthiodiketopiperazine Derivatives from Penicillium brocae MA-231, an Endophytic Fungus Derived from the Marine Mangrove Plant Avicennia marina” (J Nat Prod, 2014)
